The experiment has as its system air pouch exudates (leukocyte recruitment, pro-inflammatory mediators). Briefly: Murine air pouch model, L. major intra-pouch injection. Type of experiment: in vivo, BALB/c mice. The method, then:
FIG. 6: Neutrophils, eosinophils and MØ recruited in air pouch exudates of bpV(phen)-treated BALB/c mice in response to L. major promastigotes intra-pouch injection. Air pouch exudates were collected from animals injected with endotoxin-free PBS, LPS (20 μg/ml), L. major and bpV(phen) (500 nM i.p., 2 hour)+L. major, 6 hr post-inoculation. Each time point represents the mean±SD (n=4 mice) of 2 experiments similarly performed.
FIG. 7: In vivo Leishmania-induced pro-inflammatory mediator generations in pV-treated mice. (A) Nitrate level determination in air pouch exudates collected 6 hr post-inoculation of endotoxin-free PBS, L. major and bpV(phen) followed by L. major has been performed. Values are the mean±SEM of 2 experiments performed independently. (B) Evaluation of pro-inflammatory cytokines (IL-6 and IL-1β) and chemokines (MCP-1 and MIP-2) secreted in air pouch exudates collected as described above were measured by ELISA as described in more detail below. Values are the mean±SEM of 2 experiments performed independently. […] IL-6, IL-1β, MCP-1 and MIP-2 secretion were respectively 12.8-, 2-, 8- and 6.8-time more secreted in L. major -injected bpV(phen)-treated animals compared to L. major alone. PBS control was equal to background.
With the use of a murine air pouch model, we investigated early inflammatory events that occur following L. major skin injection in bpV(phen)-treated animals (FIG. 6).
In parallel to this experiment, in vivo generation of Leishmania-induced NO and pro-inflammatory mediators in bpV(phen)-treated mice were measured in air pouch exudates (FIG. 7).

Where [1] appears, read: L. major-injected bpV(phen)-treated animals, 6 hr, ELISA.
Where [2] appears, read: bpV(phen)-treated + L. major, 6 hr.

For the compound `O.O.O.OO.OO.[K+].[OH-].[V].c1cnc2c(c1)ccc1cccnc12` [bpV(phen), potassium bisperoxo(1,10-phenanthroline)oxovanadate], where the note is “6 hr post-inoculation”, the “NO generation (nitrate level) in air pouch exudates in response to L. major infection” value was “enhanced generation”. Besides, under setting [1], the “IL-1β secretion in air pouch exudates, compared to L. major alone” value is given as 2 time; the “IL-6 secretion in air pouch exudates, compared to L. major alone” value is recorded as 12.8 time; the “MCP-1 secretion in air pouch exudates, compared to L. major alone” value was determined as 8 time; the “MIP-2 secretion in air pouch exudates, compared to L. major alone” value was 6.8 time. Also, the “recruitment of cells in air pouch exudates” value (bpV(phen) 500 nM i.p., 2 hour + L. major 10^7 parasites/ml, 6 hours post-injection, vs L. major alone) was “five times greater”. For the same compound, under setting [2], the “recruited leukocytes that were eosinophils” value worked out at 18%, the “recruited leukocytes that were macrophages” value was 12% and the “recruited leukocytes that were neutrophils” value was roughly 70%.
